Here are results for 19 compounds from ChEMBL document CHEMBL5576158, “Recent insights of PROTAC developments in inflammation-mediated and autoimmune targets: a critical review” (RSC Med Chem, 2024).

Data set [1] addresses T1, Macrophage migration inhibitory factor (Homo sapiens, UniProt P14174).
T1 sequence (P14174 whole entry): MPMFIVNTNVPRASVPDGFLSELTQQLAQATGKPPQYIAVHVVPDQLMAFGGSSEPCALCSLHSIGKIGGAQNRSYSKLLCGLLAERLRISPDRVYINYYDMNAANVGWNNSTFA
Description: Binding affinity to MIF in human A549 cells assessed as inhibition constant. Format: cell-based.

Data set [2] deals with Receptor-interacting serine/threonine-protein kinase 2 (Homo sapiens) (UniProt O43353). Description: PROTAC activity at IAP/RIPK2 in human THP-1 cells assessed as […] by Western blot analysis. On the technique in general: In western blotting, separated proteins are transferred to a membrane and probed.
The target of data set [3] is Protein cereblon/Macrophage migration inhibitory factor (Homo sapiens) (UniProt P14174+Q96SW2). Description: PROTAC activity at E3 ubiquitin ligase/MIF in human A549 cells assessed as induction of MIF degradation by Western blot analysis. In kind it is cell-based.
In data set [4] the target is Protein cereblon/Interleukin-1 receptor-associated kinase 4 (Homo sapiens, UniProt Q9NWZ3+Q96SW2). Nature of the data set: PROTAC activity at CRBN/IRAK4 in human THP-1 cells assessed as induction of IRAK4 degradation by Immuno-blotting analysis. In kind it is cell-based.
For data set [5], the target named is T2, von Hippel-Lindau disease tumor suppressor/Interleukin-1 receptor-associated kinase 3 (Homo sapiens, UniProt Q9Y616+P40337). Description: PROTAC activity at IRAK3/VHL E3 ligase in human THP-1 cells assessed as induction of IRAK3 degradation by Immuno-blot analysis. In kind it is cell-based.
Data set [6] concerns the target T2, von Hippel-Lindau disease tumor suppressor/Interleukin-1 receptor-associated kinase 3. Nature of the data set: PROTAC activity at IRAK3/VHL E3 ligase in human THP-1 cells assessed as induction of IRAK3 degradation by measuring maximal efficacy incubated for 24 hrs by Western blot analysis. Format: cell-based.
Target sequence in this assay (P40337 whole entry, looked up): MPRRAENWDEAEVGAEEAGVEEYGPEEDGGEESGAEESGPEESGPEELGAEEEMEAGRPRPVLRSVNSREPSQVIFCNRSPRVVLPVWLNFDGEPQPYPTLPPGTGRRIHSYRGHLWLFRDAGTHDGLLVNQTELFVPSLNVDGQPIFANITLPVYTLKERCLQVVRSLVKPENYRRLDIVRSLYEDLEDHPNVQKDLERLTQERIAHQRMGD
Target sequence in this assay (Q9Y616 whole entry, looked up): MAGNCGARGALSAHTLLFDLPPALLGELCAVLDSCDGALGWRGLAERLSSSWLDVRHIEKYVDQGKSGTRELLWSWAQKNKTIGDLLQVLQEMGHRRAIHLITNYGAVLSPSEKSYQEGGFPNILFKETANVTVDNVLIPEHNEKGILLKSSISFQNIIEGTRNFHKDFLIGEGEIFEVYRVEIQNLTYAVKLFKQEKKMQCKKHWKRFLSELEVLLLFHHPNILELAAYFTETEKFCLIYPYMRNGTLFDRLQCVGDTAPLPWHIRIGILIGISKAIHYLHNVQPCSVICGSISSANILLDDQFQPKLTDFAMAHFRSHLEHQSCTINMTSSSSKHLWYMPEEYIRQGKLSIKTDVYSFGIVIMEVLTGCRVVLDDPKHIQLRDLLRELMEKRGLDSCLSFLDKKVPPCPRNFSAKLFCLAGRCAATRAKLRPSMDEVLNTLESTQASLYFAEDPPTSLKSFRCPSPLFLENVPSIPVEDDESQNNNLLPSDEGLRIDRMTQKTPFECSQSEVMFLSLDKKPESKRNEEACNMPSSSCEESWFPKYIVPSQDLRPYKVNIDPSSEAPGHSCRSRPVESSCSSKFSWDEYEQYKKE
Data set [7] deals with von Hippel-Lindau disease tumor suppressor/Tyrosine-protein kinase BTK (Homo sapiens, UniProt Q06187+P40337, C481S). Description: PROTAC activity at VHL/BTK C481S mutant in human THP-1 cells assessed as induction of BTK degradation incubated for 24 hrs by immunoblotting analysis. Format: cell-based.
The target in data set [8] is Protein cereblon/Protein deacetylase HDAC6 (Homo sapiens, UniProt Q9UBN7+Q96SW2). Nature of the data set: PROTAC activity at CRBN/HDAC6 in human MM1.S cells assessed as HDAC6 degradation incubated for 18 hrs by immunoblot analysis. Format: cell-based.
In data set [9] the target is von Hippel-Lindau disease tumor suppressor/Receptor-interacting serine/threonine-protein kinase 2 (Homo sapiens) (UniProt O43353+P40337). Nature of the data set: PROTAC activity at VHL/RIPK2 in human THP-1 cells assessed as RIPK2 degradation by measuring maximal efficacy at 10 nM measured after 16 hrs by Western blot analysis relative to control. Format: cell-based.

For data set [10], the target named is Protein cereblon/Histone deacetylase 8 (Homo sapiens, UniProt Q9BY41+Q96SW2). Nature of the data set: PROTAC activity at CRBN/HDAC8 in human Jurkat T cells assessed as induction of degradation of HDAC8 by Western blot analysis. Format: cell-based.
Data set [11] addresses T3, Tyrosine-protein kinase ITK/TSK (Homo sapiens, UniProt Q08881).
T3 sequence (Q08881 whole entry): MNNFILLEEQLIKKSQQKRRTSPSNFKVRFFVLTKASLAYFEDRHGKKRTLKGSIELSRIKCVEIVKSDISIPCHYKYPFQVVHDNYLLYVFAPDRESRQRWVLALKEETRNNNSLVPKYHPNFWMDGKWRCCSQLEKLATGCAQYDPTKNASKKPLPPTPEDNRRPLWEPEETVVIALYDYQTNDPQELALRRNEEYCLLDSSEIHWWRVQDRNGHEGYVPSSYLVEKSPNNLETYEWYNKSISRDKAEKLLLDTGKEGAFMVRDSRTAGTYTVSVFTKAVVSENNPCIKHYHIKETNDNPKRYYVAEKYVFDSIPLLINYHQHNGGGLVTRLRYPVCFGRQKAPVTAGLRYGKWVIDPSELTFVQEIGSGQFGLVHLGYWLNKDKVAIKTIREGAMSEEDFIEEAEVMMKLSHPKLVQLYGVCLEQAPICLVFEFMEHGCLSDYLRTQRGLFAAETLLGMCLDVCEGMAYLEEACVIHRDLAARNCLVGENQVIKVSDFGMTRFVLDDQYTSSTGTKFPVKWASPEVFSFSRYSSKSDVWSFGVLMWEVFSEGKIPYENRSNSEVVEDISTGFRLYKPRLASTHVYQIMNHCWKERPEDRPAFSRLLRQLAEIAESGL
Description: Inhibition of ITK (unknown origin).

Data set [12] concerns the target T4, Tyrosine-protein kinase ITK/TSK (Homo sapiens) (UniProt Q08881).
T4 sequence (whole entry): T3 sequence (Q08881 whole entry)
Description: Degradation of ITK (unknown origin) at 1 uM relative to control.

Data set [13] has as its target Protein cereblon/Histone acetyltransferase KAT2B (Homo sapiens) (UniProt Q92831+Q96SW2). Description: PROTAC activity at PCAF/CRBN in human THP-1 cells assessed as induction of PCAF degradation by measuring maximal efficacy at 30 nM measured for 10 mins by Western blot analysis relative to control. In kind it is cell-based.
Data set [14] deals with Protein cereblon/Histone acetyltransferase KAT2A (Homo sapiens) (UniProt Q92830+Q96SW2). Nature of the data set: PROTAC activity at GCN5/CRBN in human THP-1 cells assessed as induction of […] degradation by measuring maximal efficacy at 30 nM measured for 10 mins by Western blot analysis relative to control. In kind it is cell-based.
Data set [15] can be described thus: Cytotoxicity against mouse RAW264.7 cells assessed as reduction in cell growth. In kind it is toxicity, cell-based.
Data set [16] deals with Protein cereblon/Indoleamine 2,3-dioxygenase 1 (Homo sapiens) (UniProt P14902+Q96SW2). Nature of the data set: PROTAC activity against CRBN/IDO1 in human HeLa cells assessed as induction of IDO1 degradation at 2 uM incubated for 24 hrs by Western blot analysis relative to control. Format: cell-based.

Protein cereblon/Macrophage migration inhibitory factor (Homo sapiens), sequence (Q96SW2 whole entry partner, one chain of several): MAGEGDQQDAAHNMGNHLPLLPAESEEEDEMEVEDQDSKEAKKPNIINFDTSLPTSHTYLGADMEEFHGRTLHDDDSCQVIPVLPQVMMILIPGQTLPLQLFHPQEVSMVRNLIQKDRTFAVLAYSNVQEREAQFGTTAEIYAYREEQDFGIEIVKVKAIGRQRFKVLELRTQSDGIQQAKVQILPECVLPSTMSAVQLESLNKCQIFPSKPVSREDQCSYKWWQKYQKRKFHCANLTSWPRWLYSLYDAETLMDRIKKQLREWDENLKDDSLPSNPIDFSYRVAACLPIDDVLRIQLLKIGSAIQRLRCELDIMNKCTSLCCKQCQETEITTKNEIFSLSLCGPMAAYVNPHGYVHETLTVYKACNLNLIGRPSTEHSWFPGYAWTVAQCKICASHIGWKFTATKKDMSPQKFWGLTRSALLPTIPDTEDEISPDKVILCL
Receptor-interacting serine/threonine-protein kinase 2 (Homo sapiens), sequence (O43353 whole entry, looked up): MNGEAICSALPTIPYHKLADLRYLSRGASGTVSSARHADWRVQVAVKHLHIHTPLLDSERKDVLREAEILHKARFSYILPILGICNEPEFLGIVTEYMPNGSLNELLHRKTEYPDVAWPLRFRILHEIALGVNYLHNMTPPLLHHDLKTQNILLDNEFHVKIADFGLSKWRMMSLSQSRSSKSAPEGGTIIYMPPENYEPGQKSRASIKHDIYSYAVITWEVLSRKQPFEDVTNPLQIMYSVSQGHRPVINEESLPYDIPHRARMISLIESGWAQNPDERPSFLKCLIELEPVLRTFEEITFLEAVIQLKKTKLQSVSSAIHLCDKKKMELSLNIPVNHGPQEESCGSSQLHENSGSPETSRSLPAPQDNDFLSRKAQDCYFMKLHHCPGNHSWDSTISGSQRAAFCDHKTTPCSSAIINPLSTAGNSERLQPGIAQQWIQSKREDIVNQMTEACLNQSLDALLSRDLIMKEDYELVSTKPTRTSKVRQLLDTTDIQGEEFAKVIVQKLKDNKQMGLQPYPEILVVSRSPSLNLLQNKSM
Protein cereblon/Interleukin-1 receptor-associated kinase 4, sequence (Q9NWZ3 whole entry): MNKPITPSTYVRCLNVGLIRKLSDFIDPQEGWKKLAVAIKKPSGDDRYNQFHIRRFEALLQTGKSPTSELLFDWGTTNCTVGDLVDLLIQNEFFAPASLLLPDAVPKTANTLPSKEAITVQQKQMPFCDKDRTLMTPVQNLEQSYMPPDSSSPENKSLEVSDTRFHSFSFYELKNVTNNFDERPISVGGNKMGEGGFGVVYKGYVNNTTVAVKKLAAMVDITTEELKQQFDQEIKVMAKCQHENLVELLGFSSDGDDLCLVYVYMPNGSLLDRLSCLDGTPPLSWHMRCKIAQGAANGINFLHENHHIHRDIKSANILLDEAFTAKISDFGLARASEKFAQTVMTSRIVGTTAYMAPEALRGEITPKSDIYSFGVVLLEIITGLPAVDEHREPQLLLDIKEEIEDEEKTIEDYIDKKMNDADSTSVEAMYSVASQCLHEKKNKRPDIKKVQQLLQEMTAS
Protein cereblon/Interleukin-1 receptor-associated kinase 4, sequence (Q96SW2 whole entry): as the sequence (Q96SW2 whole entry partner, one chain of several) above
von Hippel-Lindau disease tumor suppressor/Tyrosine-protein kinase BTK, sequence (P40337 whole entry, stated change not applied): as the sequence (P40337 whole entry, looked up) above
von Hippel-Lindau disease tumor suppressor/Tyrosine-protein kinase BTK, sequence (Q06187 2-659 C481S limits assumed, stated change not applied): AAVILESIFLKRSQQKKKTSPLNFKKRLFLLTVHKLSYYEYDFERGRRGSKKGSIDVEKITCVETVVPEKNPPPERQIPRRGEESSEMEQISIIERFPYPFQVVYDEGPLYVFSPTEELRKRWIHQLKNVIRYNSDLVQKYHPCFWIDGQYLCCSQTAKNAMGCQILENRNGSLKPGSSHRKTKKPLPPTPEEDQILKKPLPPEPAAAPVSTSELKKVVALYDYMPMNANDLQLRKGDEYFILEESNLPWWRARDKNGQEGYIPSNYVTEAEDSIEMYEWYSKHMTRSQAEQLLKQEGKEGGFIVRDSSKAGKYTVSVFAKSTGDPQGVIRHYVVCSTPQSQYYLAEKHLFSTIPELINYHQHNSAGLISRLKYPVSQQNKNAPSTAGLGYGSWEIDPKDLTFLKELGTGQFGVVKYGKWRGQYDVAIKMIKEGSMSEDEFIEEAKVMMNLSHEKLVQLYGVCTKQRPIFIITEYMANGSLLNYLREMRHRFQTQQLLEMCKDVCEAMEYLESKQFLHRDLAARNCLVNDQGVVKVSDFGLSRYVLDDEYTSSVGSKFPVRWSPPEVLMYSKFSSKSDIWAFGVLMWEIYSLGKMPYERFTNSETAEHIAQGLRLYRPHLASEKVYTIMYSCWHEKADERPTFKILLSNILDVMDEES
Protein cereblon/Histone acetyltransferase KAT2B (Homo sapiens), sequence (Q92831 whole entry, looked up): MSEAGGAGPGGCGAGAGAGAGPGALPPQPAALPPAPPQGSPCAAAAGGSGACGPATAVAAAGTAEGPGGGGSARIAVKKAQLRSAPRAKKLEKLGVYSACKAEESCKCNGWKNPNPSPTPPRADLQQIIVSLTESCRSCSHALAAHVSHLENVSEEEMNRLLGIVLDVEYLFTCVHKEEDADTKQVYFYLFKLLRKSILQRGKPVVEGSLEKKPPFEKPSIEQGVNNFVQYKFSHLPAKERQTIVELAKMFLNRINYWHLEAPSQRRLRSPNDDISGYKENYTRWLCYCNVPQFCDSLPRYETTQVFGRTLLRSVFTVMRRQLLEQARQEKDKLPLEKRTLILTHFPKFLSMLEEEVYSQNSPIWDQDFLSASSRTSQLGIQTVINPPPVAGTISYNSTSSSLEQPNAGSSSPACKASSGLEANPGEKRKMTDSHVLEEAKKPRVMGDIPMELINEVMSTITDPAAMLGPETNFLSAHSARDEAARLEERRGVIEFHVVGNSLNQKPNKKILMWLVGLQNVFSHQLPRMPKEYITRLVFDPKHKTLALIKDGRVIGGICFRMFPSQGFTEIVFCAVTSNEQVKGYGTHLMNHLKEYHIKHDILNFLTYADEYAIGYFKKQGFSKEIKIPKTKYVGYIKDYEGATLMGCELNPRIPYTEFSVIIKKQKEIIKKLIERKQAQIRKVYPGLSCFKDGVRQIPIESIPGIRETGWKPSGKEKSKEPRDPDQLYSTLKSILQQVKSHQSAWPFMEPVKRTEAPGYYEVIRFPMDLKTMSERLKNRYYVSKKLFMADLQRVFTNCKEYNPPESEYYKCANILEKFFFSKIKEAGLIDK
Protein cereblon/Histone acetyltransferase KAT2B (Homo sapiens), sequence (Q96SW2 whole entry, looked up): as the sequence (Q96SW2 whole entry partner, one chain of several) above

By Ki is commonly meant the equilibrium dissociation constant of an inhibitor or competing ligand from its target. Regarding `O=C1CCC(N2C(=O)c3cccc(NCCCC(=O)Nc4ccc(N5Cc6ccc(O)cc6OC5=O)cc4)c3C2=O)C(=O)N1` (centres undefined), the inhibitory constant (Ki) in [1] is 0.055 µM. Turning to `CN[C@H](C)C(=O)N[C@@H](C(=O)N1Cc2cc(OCCOCCOCCOCCOc3cc4nccc(Nc5ccc6scnc6c5)c4cc3S(=O)(=O)C(C)(C)C)ccc2C[C@H]1C(=O)N[C@H]1CCCc2ccccc21)C(C)(C)C`, in data set [2], the pDC50 amounted to 9.4. A word on the Emax: it is the maximal effect, on the per cent scale that the assay sets. `O=C1CCC(N2C(=O)c3cccc(NCCCCCCC(=O)Nc4ccc(N5Cc6ccc(O)cc6OC5=O)cc4)c3C2=O)C(=O)N1` (centres undefined): the maximum response (Emax) in data set [3] stood at 55%. In general, DC50 refers to the concentration giving 50% degradation. For the compound `CC(C)Nc1cc(C(=O)N[C@H]2CC[C@@H](C(=O)NCCCCCNC(=O)COc3cccc4c3C(=O)N(C3CCC(=O)NC3=O)C4=O)CC2)nc(-n2ccc3cc(C#N)cnc32)c1` (some centres undefined), the DC50 in data set [4] was determined as 0.19 µM. `Cc1ncsc1-c1ccc([C@H](C)NC(=O)[C@@H]2C[C@@H](O)CN2C(=O)[C@@H](NC(=O)[C@H]2CC[C@H](C(=O)N3CCC(n4cc(-c5cnc(N)c(O[C@@H](C)c6c(Cl)ccc(F)c6Cl)c5)cn4)CC3)CC2)C(C)(C)C)cc1`: the DC50 in [5] was 0.094 µM. Further, in data set [6], the maximal response (Emax) was determined as 95%. As for `CN[C@@H](C)C(=O)N[C@H](C(=O)N1C[C@@H](NC(=O)OCCOCCOCCOCCN2CCN(CCCC(=O)N3CCC[C@@H](n4nc(-c5ccc(Oc6ccccc6)cc5)c5c(N)ncnc54)C3)CC2)C[C@H]1C(=O)N[C@@H]1CCCc2ccccc21)C1CCCCC1`, the 50% degradation concentration (DC50) in data set [7] worked out at 0.2 µM.

For `CCCCN(Cc1ccc(C(=O)O)cc1)C(=O)Nc1ccc(OCCCCCCCn2cc(CNCc3ccc(-c4cccc5c4CN(C4CCC(=O)NC4=O)C5=O)cc3)nn2)cc1` (centres undefined), in [8], the DC50 was determined as 0.0019 µM. On to `CC(C)Nc1cc(C(=O)N[C@H]2CC[C@@H](C(=O)NCCOCCNC(=O)COc3cccc4c3C(=O)N(C3CCC(=O)NC3=O)C4=O)CC2)nc(-n2ccc3cc(C#N)cnc32)c1` (some centres undefined), for which the DC50 in data set [4] was 0.405 µM. As to `CN[C@@H](C)C(=O)N[C@H](C(=O)N1CCC[C@H]1c1nc(C(=O)c2ccc(F)cc2)cs1)C1CCN(C(=O)c2cnc(N3CCN(CCOc4cc5ncnc(Nc6n[nH]c(C)c6C)c5cc4S(=O)(=O)C(C)(C)C)CC3)nc2)CC1`, the pDC50 in data set [2] came to 7.9. With `O=C1CCC(N2C(=O)c3cccc(NCCCCCCCCCC(=O)Nc4ccc(N5Cc6ccc(O)cc6OC5=O)cc4)c3C2=O)C(=O)N1` (centres undefined), in data set [3], the Emax stood at 64%.

`Cc1ncsc1-c1ccc(CNC(=O)[C@@H]2C[C@@H](O)CN2C(=O)[C@@H](NC(=O)COCCOCCOCCOCCOc2cc3nccc(Nc4ccc5scnc5c4)c3cc2S(=O)(=O)C(C)(C)C)C(C)(C)C)cc1`: the maximal response (Emax) in data set [9] stood at 95%. For `O=C1CCC(N2C(=O)c3ccc(NCCCCCCCCCCCNC(=O)c4cccc(SCc5cn(-c6cccc(C(=O)NO)c6)nn5)c4)cc3C2=O)C(=O)N1` (centres undefined), the half-maximal degradation concentration (DC50) in data set [10] amounted to 0.702 µM.

On to `CN1C(=O)CCC(N2C(=O)c3cccc(NCCCCCCCC(=O)Nc4ccc(N5Cc6ccc(O)cc6OC5=O)cc4)c3C2=O)C1=O` (centres undefined), for which the maximal effect (Emax) in data set [3] was determined as 55%. The same measure, in the same setting: the value for `O=C1CCC(N2C(=O)c3cccc(NCCCCCCCC(=O)Nc4ccc(N5Cc6ccc(O)cc6OC5=O)cc4)c3C2=O)C(=O)N1` (centres undefined) was 91%. Broadly, the IC50 is the midpoint of a concentration-inhibition curve. Take `COc1cc(C)c(Sc2cnc(NC(=O)c3ccc(N4CCN(CCCCCCNC(=O)COc5cccc6c5C(=O)N(C5CCC(=O)NC5=O)C6=O)CC4)cc3)s2)cc1C(=O)N1CCN(C(C)=O)CC1` (centres undefined): the pDC50 in [2] is reported as 9.4. Moreover, in [11], the IC50 was 0.0176 µM. In addition, the degradation in data set [12] was > 90%. For the compound `CN1C[C@H](Nc2cnn(C)c(=O)c2Br)C[C@H](c2ccc(C(=O)N(C)CCCN(C)c3ccc(CCCOc4cccc5c4C(=O)N(C4CCC(=O)NC4=O)C5=O)cc3)cc2)C1` (some centres undefined), the Emax in data set [13] and in [14] was 80% each time. As for `O=C1CCC(N2C(=O)c3cccc(NCCCCC(=O)Nc4ccc(N5Cc6ccc(O)cc6OC5=O)cc4)c3C2=O)C(=O)N1` (centres undefined), in data set [1], the inhibitory constant (Ki) is 0.086 µM. Further, in data set [3], the maximal effect (Emax) stood at 21%. Regarding `C=C1CC[C@H]2[C@@H](/C=C(\C)C(=O)[C@@]3(O)C[C@H](C)[C@H](O)[C@@H]3[C@H]1OCc1cn(CCOCCOCCOCCNc3cccc4c3C(=O)N(C3CCC(=O)NC3=O)C4=O)nn1)C2(C)C` (some centres undefined), the IC50 in data set [15] amounted to 8.34 µM. Regarding `O=C1CCC(N2C(=O)c3cccc(NCCOCCOCCOCCOCCOCCOCCOCCNCCNc4nonc4/C(=N/O)Nc4ccc(F)c(Br)c4)c3C2=O)C(=O)N1` (centres undefined), the Emax in [16] was found to be 93%.
